Test results: patent US5578566A, “KGF receptor-derived antagonists of KGF binding” (The United States of America as represented by the …, priority 1993, dated 1996)
No end group written: not given here.

T1: KGF (Homo sapiens, UniProt P21781)
T1 construct: made in house
T1 sequence (P21781 32-194): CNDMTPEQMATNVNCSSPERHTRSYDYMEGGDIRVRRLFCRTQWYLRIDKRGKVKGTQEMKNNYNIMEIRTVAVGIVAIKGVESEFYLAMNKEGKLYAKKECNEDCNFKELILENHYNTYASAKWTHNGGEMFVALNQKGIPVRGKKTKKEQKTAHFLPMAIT


How the values were obtained:
KGF receptor (KGFR) = molecular target: T2, KGF receptor (KGFR) (Mus musculus, UniProt P21803); assay: [125I]-KGF binding to NIH/3T3 cells overexpressing KGFR (competition); settings: NIH3T3/KGFR transfectants; read-out: displacement of 50% of the radiolabeled KGF
T2 construct: expressed in transfected cells; host or cells: NIH/3T3
Protocol: Values shown are the mean of triplicate samples. Results are representative of three separate experiments.
[^125 I]-KGF binding to NIH/3T3 cells overexpressing KGFR was measured as described in Bottaro et al., supra. Competition studies were performed with unlabeled KGF or peptides as indicated.

Solubility in water = assay type: physicochemical
KGF mitogenic activity = settings: Ron et al.; cited from earlier work
KGF = molecular target: T1, KGF; assay: KGF radioimmunoassay: immunoprecipitation of [125I]-KGF by monoclonal antibody 1G4; assay type: binding
Protocol: Upper Panel: Immunoprecipitation of [^125 I]-KGF competed by KGF, aFGF, aFGF+heparin (30 μg/ml), peptide 412 (SEQ ID NO 2) or peptide 341. Lower Panel: Immunoprecipitation of [^125 I]-KGF competed by KGF, KGF+heparin (1, 10, or 30 μg/ml, as indicated), peptide 412 (SEQ ID NO 2), or peptide 412 (SEQ ID NO 2)+heparin (1, 10, or 30 μg/ml, as indicated). Values are the mean of duplicate samples, expressed as % maximum [^125 I]-KGF bound. Raw values for background and maximum [^125 I]-KGF bound were approximately 300 and 12,000 cpm/sample, respectively. Results are representative of three separate experiments.
[^125 I]-KGF was immunoprecipitated by 1G4 in the presence of unlabeled KGF, aFGF, or peptides as indicated. Briefly, 1G4 (4 ng/ml final concentration), [^125 I]-KGF (30,000 cpm), and appropriate competitors were mixed in 200 μl of buffer containing 10 mM Tris (pH 7.4), 130 mm NaCl, 1 mM EDTA, 10 mM KC1, 1% NP-40, 0.1% SDS, 0.05% Tween-20, and 0.3% nonfat dry milk, and incubated for 24h at 4° C. Antigen-antibody complex was recovered by adding 30 ul (50% suspension) GammaBind-G Sepharose, incubating an additional 30 min at 4° C. (turning gently), and brief centrifugation (5 min at 14,000×g, 4° C.). Pelleted material was washed three times ([…] each) with cold buffer, and radioactivity was measured by gamma counting.

T2 sequence (P21803 22-707 isoform P21803-2 limits assumed): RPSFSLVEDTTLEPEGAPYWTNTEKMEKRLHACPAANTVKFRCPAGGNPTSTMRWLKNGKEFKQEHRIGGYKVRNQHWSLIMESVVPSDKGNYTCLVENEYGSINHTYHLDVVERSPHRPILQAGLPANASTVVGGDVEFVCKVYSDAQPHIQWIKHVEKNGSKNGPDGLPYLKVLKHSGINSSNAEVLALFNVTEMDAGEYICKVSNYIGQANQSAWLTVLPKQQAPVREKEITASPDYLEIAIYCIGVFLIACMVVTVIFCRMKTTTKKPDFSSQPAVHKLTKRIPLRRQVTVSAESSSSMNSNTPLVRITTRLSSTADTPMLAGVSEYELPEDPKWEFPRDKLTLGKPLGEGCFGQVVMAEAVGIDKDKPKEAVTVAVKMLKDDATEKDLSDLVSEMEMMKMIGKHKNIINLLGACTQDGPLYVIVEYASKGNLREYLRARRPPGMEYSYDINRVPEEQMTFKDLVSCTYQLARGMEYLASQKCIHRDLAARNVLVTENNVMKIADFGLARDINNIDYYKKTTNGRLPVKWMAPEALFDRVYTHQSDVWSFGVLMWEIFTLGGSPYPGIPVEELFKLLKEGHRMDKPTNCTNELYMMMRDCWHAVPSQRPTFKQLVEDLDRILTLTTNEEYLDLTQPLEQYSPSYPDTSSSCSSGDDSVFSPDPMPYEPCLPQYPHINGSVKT

| Molecule | IC50 (KGF receptor (KGFR)) | water solubility relative to its highest ED50 (Solubility in water) | competition / displacement of [125I]-KGF from 1G4 (KGF; KGF RIA) | also measured |
| --- | --- | --- | --- | --- |
| HSGINSSNAEVLALFNVTEM [peptide 367] | ~4 µM | approximately 30 fold |  | solubility (Solubility in water; read-out: limit of solubility in water): 125 µM |
| heparin [reference compound] |  |  | had no effect | effect on KGF mitogenesis (KGF mitogenic activity): inhibits KGF mitogenesis |
| HSGINSSNAEVLALFNVTEMDAGEY [peptide 412] | ~4 µM | > 3000 fold |  | IC50 (KGF; KGF RIA, read-out: concentration required to achieve 50% displacement of [125I]-KGF from 1G4): ~1000 nM; Kd (KGF; consistent with data from receptor binding assay and RIA, read-out: Kd for KGF/peptide interactions): 1000 to 2000 nM |
| aFGF: Acidic FGF purified from bovine brain, from Upstate Biotechnology (protein, UniProt P03968 16-155, looked up) Fibroblast growth factor 1: FNLPLGNYKKPKLLYCSNGGYFLRILPDGTVDGTKDRSDQHIQLQLCAESIGEVYIKSTETGQFLAMDTDGLLYGSQTPNEECLFLERLEENHYNTYISKKHAEKHWFVGLKKNGRSKLGPRTHFGQKAILFLPLPVSSD |  |  | but not aFGF, even at a 1000-fold higher concentration | competition in the KGF RIA with addition of heparin (KGF; heparin 30 μg/ml): did not cause aFGF to compete |
